≈ marks a conversion by molar mass, not a printed value.
Experiments:
Experiment in all cases: Bacterial growth minimal inhibitory concentration (CLSI broth microdilution)
Format in all cases: cell-based
P. aeruginosa ATCC27853 = conditions: quinolone-sensitive strain, cation-adjusted Mueller-Hinton Broth; for MIC: Pseudomonas aeruginosa, ATCC27853
Method: (§1) Minimal Inhibitory Concentrations (MICs; mg/L) were determined in cation-adjusted Mueller-Hinton Broth by a microdilution method following the description given in “Methods for Dilution Antimicrobial Susceptibility Tests for Bacteria that Grow Aerobically”, Approved standard, 7th ed., Clinical and Laboratory Standards Institute (CLSI) Document M7-A7, Wayne, Pa., USA (2006).
(§2) All Reference Example compounds were tested against several Gram-negative bacteria. K. pneumoniae A-651 is a multiply resistant strain (in particular quinolone-resistant), while E. coli ATCC25922 and P. aeruginosa ATCC27853 are quinolone-sensitive strains. The corresponding antibacterial test results are given in Table 1 hereafter (MICs in mg/L).

K. pneumoniae A-651 = conditions: multiply resistant strain (in particular quinolone-resistant), cation-adjusted Mueller-Hinton Broth; for MIC: Klebsiella pneumoniae, A651
Method: as §1, §2

E. coli ATCC25922 = conditions: quinolone-sensitive strain, cation-adjusted Mueller-Hinton Broth; for MIC: Escherichia coli, ATCC25922
Method: as §1, §2

SMILES	MIC (P. aeruginosa ATCC27853)	MIC (K. pneumoniae A-651)	MIC (E. coli ATCC25922)	MIC for P. aeruginosa ATCC27853 (P. aeruginosa ATCC27853)	MIC for K. Pneumoniae A-651 (K. pneumoniae A-651)	MIC for E. coli ATCC25922 (E. coli ATCC25922)
C[C@@](CCN1Cc2cc(C#CC#CCN3CCOC3=O)cn2C1=O)(C(=O)NO)S(C)(=O)=O [Example 9, (2R)—N-hydroxy-2-methyl-2-(methylsulfonyl)-4-(3-oxo-6-(5-(2-oxooxazolidin-3-yl)penta-1,3-diyn-1-yl)-1H-pyrrolo[1,2-c]imidazol-2(3H)-yl)butanamide]	8 µg/mL (≈ 17.3 µM)	4 µg/mL (≈ 8.65 µM)	2 µg/mL (≈ 4.32 µM)			
C[C@@](CCN1Cc2cc(C#Cc3ccc(COC(=O)N4CC(O)C4)cc3)cn2C1=O)(C(=O)NO)S(C)(=O)=O [Example 10, (3R)-4-((2-(4-(hydroxyamino)-3-methyl-3-(methylsulfonyl)-4-oxobutyl)-3-oxo-2,3-dihydro-1H-pyrrolo[1,2-c]imidazol-6-yl)ethynyl)benzyl 3-hydroxyazetidine-1-carboxylate]	1 µg/mL (≈ 1.84 µM)	0.25 µg/mL (≈ 0.459 µM)	0.25 µg/mL (≈ 0.459 µM)			
CN(CCO)C(=O)OCc1ccc(C#Cc2cc3n(c2)C(=O)N(CC[C@](C)(C(=O)NO)S(C)(=O)=O)C3)cc1 [Example 11, (3R)-4-((2-(4-(hydroxyamino)-3-methyl-3-(methylsulfonyl)-4-oxobutyl)-3-oxo-2,3-dihydro-1H-pyrrolo[1,2-c]imidazol-6-yl)ethynyl)benzyl (2-hydroxyethyl)(methyl)carbamate]	2 µg/mL (≈ 3.66 µM)	0.5 µg/mL (≈ 0.915 µM)	0.5 µg/mL (≈ 0.915 µM)			
C[C@@](CCN1Cc2cc(C#Cc3ccc(CN4CCC(N)C(F)(F)C4)cc3)cn2C1=O)(C(=O)NO)S(C)(=O)=O (stereo partly drawn) [Example 14, (2R)-4-(6-((4-((4-amino-3,3-difluoropiperidin-1-yl)methyl)phenyl)ethynyl)-3-oxo-1H-pyrrolo[1,2-c]imidazol-2(3H)-yl)-N-hydroxy-2-methyl-2-(methylsulfonyl)butanamide]	1 µg/mL (≈ 1.77 µM)	2 µg/mL (≈ 3.55 µM)	0.5 µg/mL (≈ 0.887 µM)			
C[C@@](CCN1Cc2cc(C#Cc3ccc(C4(F)CNC4)cc3)cn2C1=O)(C(=O)NO)S(C)(=O)=O [Example 15, (2R)-4-(6-((4-(3-fluoroazetidin-3-yl)phenyl)ethynyl)-3-oxo-1H-pyrrolo[1,2-c]imidazol-2(3H)-yl)-N-hydroxy-2-methyl-2-(methylsulfonyl)butanamide]	1 µg/mL (≈ 2.05 µM)	2 µg/mL (≈ 4.09 µM)	0.5 µg/mL (≈ 1.02 µM)			
C[C@@](CCN1Cc2cc(C#Cc3ccc(C4(F)CN(C5COC5)C4)cc3)cn2C1=O)(C(=O)NO)S(C)(=O)=O [Example 16, (2R)-4-(6-((4-(3-fluoro-1-(oxetan-3-yl)azetidin-3-yl)phenyl)ethynyl)-3-oxo-1H-pyrrolo[1,2-c]imidazol-2(3H)-yl)-N-hydroxy-2-methyl-2-(methylsulfonyl)butanamide]	1 µg/mL (≈ 1.84 µM)	0.5 µg/mL (≈ 0.918 µM)	0.25 µg/mL (≈ 0.459 µM)			
CN1CCN(C(=O)OCc2ccc(C#Cc3cc4n(c3)C(=O)N(CC[C@](C)(C(=O)NO)S(C)(=O)=O)C4)cc2)CC1 [Example 17, (3R)-4-((2-(4-(hydroxyamino)-3-methyl-3-(methylsulfonyl)-4-oxobutyl)-3-oxo-2,3-dihydro-1H-pyrrolo[1,2-c]imidazol-6-yl)ethynyl)benzyl 4-methylpiperazine-1-carboxylate]	2 µg/mL (≈ 3.5 µM)	0.5 µg/mL (≈ 0.875 µM)	0.25 µg/mL (≈ 0.437 µM)			
C[C@@](CCN1Cc2cc(C#CC#CC3(F)CNC3)cn2C1=O)(C(=O)NO)S(C)(=O)=O [Example 18, (2R)-4-(6-((3-fluoroazetidin-3-yl)buta-1,3-diyn-1-yl)-3-oxo-1H-pyrrolo[1,2-c]imidazol-2(3H)-yl)-N-hydroxy-2-methyl-2-(methylsulfonyl)butanamide]	2 µg/mL (≈ 4.58 µM)	4 µg/mL (≈ 9.16 µM)	2 µg/mL (≈ 4.58 µM)			
C[C@@](CCN1Cc2cc(C#CC#CC3(F)CN(C4COC4)C3)cn2C1=O)(C(=O)NO)S(C)(=O)=O [Example 19, (2R)-4-(6-((3-fluoro-1-(oxetan-3-yl)azetidin-3-yl)buta-1,3-diyn-1-yl)-3-oxo-1H-pyrrolo[1,2-c]imidazol-2(3H)-yl)-N-hydroxy-2-methyl-2-(methylsulfonyl)butanamide]	2 µg/mL (≈ 4.06 µM)	1 µg/mL (≈ 2.03 µM)	0.25 µg/mL (≈ 0.508 µM)			
CN1CC(F)(c2ccc(C#Cc3cc4n(c3)C(=O)N(CC[C@](C)(C(=O)NO)S(C)(=O)=O)C4)cc2)C1 [Example 20, (2R)-4-(6-((4-(3-fluoro-1-methylazetidin-3-yl)phenyl)ethynyl)-3-oxo-1H-pyrrolo[1,2-c]imidazol-2(3H)-yl)-N-hydroxy-2-methyl-2-(methylsulfonyl)butanamide]	1 µg/mL (≈ 1.99 µM)	0.25 µg/mL (≈ 0.497 µM)	0.125 µg/mL (≈ 0.249 µM)			
CN(C)C1(C#CC#Cc2cc3n(c2)C(=O)N(CC[C@](C)(C(=O)NO)S(C)(=O)=O)C3)CC1 [Example 21, (2R)-4-(6-((1-(dimethylamino)cyclopropyl)buta-1,3-diyn-1-yl)-3-oxo-1H-pyrrolo[1,2-c]imidazol-2(3H)-yl)-N-hydroxy-2-methyl-2-(methylsulfonyl)butanamide]	0.5 µg/mL (≈ 1.12 µM)	0.5 µg/mL (≈ 1.12 µM)	0.5 µg/mL (≈ 1.12 µM)			
C[C@@](CCN1Cc2cc(C#CC#CC3(COC(=O)N4CC(O)C4)CC3)cn2C1=O)(C(=O)NO)S(C)(=O)=O [Example 22, (3R)-(1-((2-(4-(hydroxyamino)-3-methyl-3-(methylsulfonyl)-4-oxobutyl)-3-oxo-2,3-dihydro-1H-pyrrolo[1,2-c]imidazol-6-yl)buta-1,3-diyn-1-yl)cyclopropyl)methyl 3-hydroxyazetidine-1-carboxylate]	4 µg/mL (≈ 7.51 µM)	4 µg/mL (≈ 7.51 µM)	1 µg/mL (≈ 1.88 µM)			
CN1CCN(C(=O)OCC2(C#CC#Cc3cc4n(c3)C(=O)N(CC[C@](C)(C(=O)NO)S(C)(=O)=O)C4)CC2)CC1 [Example 23, (3R)-(1-((2-(4-(hydroxyamino)-3-methyl-3-(methylsulfonyl)-4-oxobutyl)-3-oxo-2,3-dihydro-1H-pyrrolo[1,2-c]imidazol-6-yl)buta-1,3-diyn-1-yl)cyclopropyl)methyl 4-methylpiperazine-1-carboxylate]	8 µg/mL (≈ 14.3 µM)	4 µg/mL (≈ 7.15 µM)	4 µg/mL (≈ 7.15 µM)			
C[C@@](CCN1Cc2cc(C#CC#CCOC(=O)N3CC(O)C3)cn2C1=O)(C(=O)NO)S(C)(=O)=O [Example 24, (3R)-5-(2-(4-(hydroxyamino)-3-methyl-3-(methylsulfonyl)-4-oxobutyl)-3-oxo-2,3-dihydro-1H-pyrrolo[1,2-c]imidazol-6-yl)penta-2,4-diyn-1-yl 3-hydroxyazetidine-1-carboxylate]	1 µg/mL (≈ 2.03 µM)	1 µg/mL (≈ 2.03 µM)	0.5 µg/mL (≈ 1.02 µM)			
C[C@@](CCN1Cc2cc(C#Cc3ccc(OCCS(C)(=O)=O)cc3)cn2C1=O)(C(=O)NO)S(C)(=O)=O [Example 25, (2R)—N-hydroxy-2-methyl-2-(methylsulfonyl)-4-(6-((4-(2-(methylsulfonyl)ethoxy)phenyl)ethynyl)-3-oxo-1H-pyrrolo[1,2-c]imidazol-2(3H)-yl)butanamide]	1 µg/mL (≈ 1.86 µM)	0.5 µg/mL (≈ 0.93 µM)	0.125 µg/mL (≈ 0.233 µM)			
C[C@@](CCN1Cc2cc(C#Cc3ccc(CNC(=O)OC4CNC4)cc3)cn2C1=O)(C(=O)NO)S(C)(=O)=O [Example 26, azetidin-3-yl (3R)-(4-((2-(4-(hydroxyamino)-3-methyl-3-(methylsulfonyl)-4-oxobutyl)-3-oxo-2,3-dihydro-1H-pyrrolo[1,2-c]imidazol-6-yl)ethynyl)benzyl)carbamate]	4 µg/mL (≈ 7.36 µM)	8 µg/mL (≈ 14.7 µM)	8 µg/mL (≈ 14.7 µM)			
CN1CC(OC(=O)NCc2ccc(C#Cc3cc4n(c3)C(=O)N(CC[C@](C)(C(=O)NO)S(C)(=O)=O)C4)cc2)C1 [Example 27, 1-methylazetidin-3-yl (3R)-(4-((2-(4-(hydroxyamino)-3-methyl-3-(methylsulfonyl)-4-oxobutyl)-3-oxo-2,3-dihydro-1H-pyrrolo[1,2-c]imidazol-6-yl)ethynyl)benzyl)carbamate]	8 µg/mL (≈ 14.3 µM)	4 µg/mL (≈ 7.17 µM)	2 µg/mL (≈ 3.59 µM)			
C[C@@](CCN1Cc2cc(C#CC#C[C@@H]3C[C@H]3CN3CCOCC3)cn2C1=O)(C(=O)NO)S(C)(=O)=O [Example 29, (2R)—N-hydroxy-2-methyl-2-(methylsulfonyl)-4-(6-(((1R,2R)-2-(morpholinomethyl)cyclopropyl)buta-1,3-diyn-1-yl)-3-oxo-1H-pyrrolo[1,2-c]imidazol-2(3H)-yl)butanamide]	2 µg/mL (≈ 3.98 µM)	0.5 µg/mL (≈ 0.995 µM)	0.25 µg/mL (≈ 0.497 µM)			
CN1CC(C#CC#Cc2cc3n(c2)C(=O)N(CC[C@](C)(C(=O)NO)S(C)(=O)=O)C3)C1 [Example 30, (2R)—N-hydroxy-2-methyl-4-(6-((1-methylazetidin-3-yl)buta-1,3-diyn-1-yl)-3-oxo-1H-pyrrolo[1,2-c]imidazol-2(3H)-yl)-2-(methylsulfonyl)butanamide]	0.5 µg/mL (≈ 1.16 µM)	0.5 µg/mL (≈ 1.16 µM)	0.5 µg/mL (≈ 1.16 µM)			
C[C@@](CCN1Cc2cc(C#CC#CC3CNC3)cn2C1=O)(C(=O)NOC1CCCCO1)S(C)(=O)=O (stereo partly drawn) [Example 31, (2R)-4-(6-(azetidin-3-ylbuta-1,3-diyn-1-yl)-3-oxo-1H-pyrrolo[1,2-c]imidazol-2(3H)-yl)-2-methyl-2-(methylsulfonyl)-N-((tetrahydro-2H-pyran-2-yl)oxy)butanamide]				1 µg/mL	8 µg/mL	8 µg/mL
CC(=O)N1CC(C#CC#Cc2cc3n(c2)C(=O)N(CC[C@](C)(C(=O)NO)S(C)(=O)=O)C3)C1 [Example 32, (2R)-4-(6-((1-acetylazetidin-3-yl)buta-1,3-diyn-1-yl)-3-oxo-1H-pyrrolo[1,2-c]imidazol-2(3H)-yl)-N-hydroxy-2-methyl-2-(methylsulfonyl)butanamide]	1 µg/mL (≈ 2.17 µM)	2 µg/mL (≈ 4.34 µM)	1 µg/mL (≈ 2.17 µM)			

— patent US10314823B2, “Substituted 1,2-dihydro-3H-pyrrolo[1,2-c]imidazol-3-one antibacterial compounds” (IDORSIA PHARMACEUTICALS LTD, priority 2015, dated 2019)
